The values below come from patent US12528814B2, “Bifunctional degraders of interleukin-1 receptor-associated kinases and therapeutic use thereof” (NURIX THERAPEUTICS, INC., priority 2020, dated 2026).

Experiment [1] deals with T1, IRAK4 (Homo sapiens (Human), UniProt Q9NWZ3). The experiment is described as follows: IRAK4 Degradation HiBiT Assay. The settings on record: HiBiT-tagged Jurkat cells, 4 hrs; for Dmax: Jurkat; for DC50: read-out: Cellular IRAK4 HiBiT: DC50. (In general: The HiBiT peptide binds its large partner to form an active luciferase.)
Target sequence in this assay (Q9NWZ3 whole entry): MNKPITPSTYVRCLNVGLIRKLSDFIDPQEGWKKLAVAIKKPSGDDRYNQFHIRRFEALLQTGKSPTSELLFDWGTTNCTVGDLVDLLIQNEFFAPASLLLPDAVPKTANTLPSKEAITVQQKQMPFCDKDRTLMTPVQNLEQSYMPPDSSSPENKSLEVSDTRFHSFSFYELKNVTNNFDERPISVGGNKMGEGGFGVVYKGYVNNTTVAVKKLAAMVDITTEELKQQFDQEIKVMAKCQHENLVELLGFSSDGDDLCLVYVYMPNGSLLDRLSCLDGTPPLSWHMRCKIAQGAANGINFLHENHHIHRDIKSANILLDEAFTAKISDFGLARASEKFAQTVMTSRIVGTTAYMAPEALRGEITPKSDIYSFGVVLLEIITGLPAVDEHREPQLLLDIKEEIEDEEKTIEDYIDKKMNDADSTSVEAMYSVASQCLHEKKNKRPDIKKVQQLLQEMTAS
Description: Compound dilution series (11-point, 3.16-fold dilutions in DMSO, columns 1-11 and 12-22) at 500× the final required concentrations were prepared in Labcyte LDV 384-well plates (cat. no. LP-0200) using a Labcyte Echo 550 Liquid Handler. The 500× solutions ranged from 5 mM to 0.5 μM (final assay concentration range 10 μM to 0.1 nM). Using the Echo, the 500× solutions were stamped into white, 384-well assay plates (Corning, cat. no. 3570) at 60 nL/well. […] C-terminal HiBiT-tagged Jurkat cells (polyclonal cell line or clone 8D5) were plated at 1×10^6 cells/mL, 30 μL/well (3×10^4 cells/well) in complete RPMI (10% FBS, 1% L-glutamine). Cells were incubated for 4 hrs at 32° C./6% CO2.
Following incubation, 30 uL of complete Nano-Glo HiBiT Lytic Detection Reagent (Nano-Glo HiBiT Lytic Buffer with 1:50 Nano-Glo HiBiT Lytic Substrate and 1:100 LgBiT Protein; Promega cat. no. N3040) was added. Cells were further incubated for 10 min at room temperature (RT). Luminescence units (LU) were read on an EnVision plate reader (Perkin Elmer, 0.1 sec per well). Percent IRAK4 remaining per sample was calculated as follows:
Using Graphpad Prism, % IRAK4 remaining values were plotted as a function of compound concentration.
Experiment [2] deals with T1, IRAK4. In words: IRAK4 Biochemical HTRF Kinase Assay. The settings on record: read-out: IRAK4 HTRF biochemical: IC50. In outline: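 IC50 values derive from non-linear regression of sixteen concentrations in duplicate. Kinase reaction ran 90 min at ambient temperature after adding 5 μM STK-S1 substrate, 10 mM ATP and 10 mM MgCl2 (reaction-solution levels, pre-dilution to 10 μl); phospho-peptide detected by HTRF after 60 min.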
Target sequence in this assay (Q9NWZ3 whole entry, species assumed): as the sequence (Q9NWZ3 whole entry) above
(Time-resolved FRET reads energy transfer from a long-lived donor to a nearby acceptor.)

Where [3] appears, read: read-out: Cellular IRAK4 HiBiT: Dmax, Table 5, multiple runs.

Like-named read-outs stand apart in the source and are kept apart here.

As a reminder, the Dmax is the greatest extent of degradation seen. By DC50 is commonly meant the concentration giving 50% degradation. One may read the IC50 as the concentration at which inhibition is half-maximal. With `CNc1cc(-c2ccc3cc(C#N)cnn23)ncc1-c1nnc([C@H]2CC[C@H](NC[C@@H]3CCN(c4ccc5c(c4)C(=O)N(C4CCC(=O)NC4=O)C5=O)C3)CC2)s1` (stereo partly drawn) [Example 153, 7-(5-(5-((1S,4r)-4-((((3S)-1-(2-(2,6-dioxopiperidin-3-yl)-1,3-dioxoisoindolin-5-yl)pyrrolidin-3-yl)methyl)amino)cyclohexyl)-1,3,4-thiadiazol-2-yl)-4-(methylamino)pyridin-2-yl)pyrrolo[1,2-b]pyridazine-3-carbonitrile], the Dmax on IRAK4 [1] (setting [3]) was 68%. The DC50 at IRAK4 [1] (Table 5, multiple runs) stood at 54.8 nM. In addition, the IC50 on IRAK4 [2] (Table 5, multiple runs) is 0.5 nM.

`Cc1ncsc1-c1ccc(CNC(=O)[C@@H]2C[C@@H](O)CN2C(=O)[C@@H](NC(=O)C2(F)CC2)C(C)(C)C)c(OCC(=O)N2CCC3(CC2)CCN(c2nnc(-c4cnc(-c5ccc6cc(C#N)cnn56)cc4NC(C)C)s2)CC3)c1` [Example 83, (2S,4R)—N-(2-(2-(9-(5-(6-(3-cyanopyrrolo[1,2-b]pyridazin-7-yl)-4-(isopropylamino)pyridin-3-yl)-1,3,4-thiadiazol-2-yl)-3,9-diazaspiro[5.5]undecan-3-yl)-2-oxoethoxy)-4-(4-methylthiazol-5-yl)benzyl)-1-((S)-2-(1-fluorocyclopropane-1-carboxamido)-3,3-dimethylbutanoyl)-4-hydroxypyrrolidine-2-carboxamide]: the Dmax on IRAK4 [1] (setting [3]) is 109%. Moreover, at IRAK4 [1] (Table 5, multiple runs), the DC50 worked out at 319 nM. In addition, on IRAK4 [2] (Table 5, multiple runs), the IC50 came out at 6.8 nM.

Regarding `Cc1ncsc1-c1ccc([C@H](C)NC(=O)[C@@H]2C[C@@H](O)CN2C(=O)[C@@H](NC(=O)CCC(=O)N2CCN(c3nnc(-c4cnc(-c5ccc6cc(C#N)cnn56)cc4NC(C)C)s3)CC2)C(C)(C)C)cc1` [Example 40, (2S,4R)-1-((S)-2-(4-(4-(5-(6-(3-cyanopyrrolo[1,2-b]pyridazin-7-yl)-4-(isopropylamino)pyridin-3-yl)-1,3,4-thiadiazol-2-yl)piperazin-1-yl)-4-oxobutanamido)-3,3-dimethylbutanoyl)-4-hydroxy-N—((S)-1-(4-(4-methylthiazol-5-yl)phenyl)ethyl)pyrrolidine-2-carboxamide], the Dmax stood at 53% on IRAK4 [1] (read-out: Cellular IRAK4 HiBiT: Dmax, Table 4) and 53% on IRAK4 [1] (setting [3]). Moreover, the 50% degradation concentration (DC50) on IRAK4 [1] (Table 4) worked out at 420 nM; at IRAK4 [1] (Table 5, multiple runs), 419 nM. The IC50 was determined as 3.6 nM on IRAK4 [2] (Table 4) and 3.6 nM on IRAK4 [2] (Table 5, multiple runs).

Take `CNc1cc(-c2ccc3cc(C#N)cnn23)ncc1-c1nnc(C2CCC(NC(=O)[C@H]3C[C@H]3C(=O)N[C@H](C(=O)N3C[C@H](O)C[C@H]3C(=O)N[C@@H](C)c3ccc(-c4scnc4C)cc3)C(C)(C)C)CC2)s1` (mixture of isomers) [Example 147, (1RS,2SR)—N1-((1r,4R)-4-(5-(6-(3-cyanopyrrolo[1,2-b]pyridazin-7-yl)-4-(methylamino)pyridin-3-yl)-1,3,4-thiadiazol-2-yl)cyclohexyl)-N2—((S)-1-((2S,4R)-4-hydroxy-2-(((S)-1-(4-(4-methylthiazol-5-yl)phenyl)ethyl)carbamoyl)pyrrolidin-1-yl)-3,3-dimethyl-1-oxobutan-2-yl)cyclopropane-1,2-dicarboxamide]: the Dmax at IRAK4 [1] (setting [3]) came to 80%. Further, the DC50 at IRAK4 [1] (Table 5, multiple runs) turned out to be 508 nM. For the same compound, on IRAK4 [2] (Table 5, multiple runs), the IC50 was found to be 1.5 nM.

On to `CNc1cc(-c2ccc3cc(C#N)cnn23)ncc1-c1nnc([C@H]2CC[C@@H](NC(=O)CCC(=O)N[C@H](C(=O)N3C[C@H](O)C[C@H]3C(=O)N[C@@H](C)c3ccc(-c4scnc4C)cc3)C(C)(C)C)CC2)s1` [Example 121, N1-((1s,4R)-4-(5-(6-(3-cyanopyrrolo[1,2-b]pyridazin-7-yl)-4-(methylamino)pyridin-3-yl)-1,3,4-thiadiazol-2-yl)cyclohexyl)-N4—((S)-1-((2S,4R)-4-hydroxy-2-(((S)-1-(4-(4-methylthiazol-5-yl)phenyl)ethyl)carbamoyl)pyrrolidin-1-yl)-3,3-dimethyl-1-oxobutan-2-yl)succinamide], for which the Dmax at IRAK4 [1] (setting [3]) was 95%. The DC50 at IRAK4 [1] (Table 5, multiple runs) is 1080 nM. Further, the IC50 at IRAK4 [2] (Table 5, multiple runs) was 1.2 nM.

For the compound `CNc1cc(-c2ccc3cc(C#N)cnn23)ncc1-c1nnc(N2CCN(C[C@@H]3CCN(c4ccc5c(c4)n(C)c(=O)n5C4CCC(=O)NC4=O)C3)CC2)s1` (stereo partly drawn) [Example 92, 7-(5-(5-(4-(((3S)-1-(1-(2,6-dioxopiperidin-3-yl)-3-methyl-2-oxo-2,3-dihydro-1H-benzo[d]imidazol-5-yl)pyrrolidin-3-yl)methyl)piperazin-1-yl)-1,3,4-thiadiazol-2-yl)-4-(methylamino)pyridin-2-yl)pyrrolo[1,2-b]pyridazine-3-carbonitrile], the DC50 at IRAK4 [1] (Table 5, multiple runs) was greater than 970 nM. Besides, on IRAK4 [2] (Table 5, multiple runs), the IC50 came out at 1 nM.

On to `CNc1cc(-c2ccc3cc(C#N)cnn23)ncc1-c1nnc([C@H]2CC[C@H](NC(=O)C34CC(C(=O)N[C@H](C(=O)N5C[C@H](O)C[C@H]5C(=O)N[C@@H](C)c5ccc(-c6scnc6C)cc5)C(C)(C)C)(C3)C4)CC2)s1` [Example 101, N1-((1r,4S)-4-(5-(6-(3-cyanopyrrolo[1,2-b]pyridazin-7-yl)-4-(methylamino)pyridin-3-yl)-1,3,4-thiadiazol-2-yl)cyclohexyl)-N3-((S)-1-((2S,4R)-4-hydroxy-2-(((S)-1-(4-(4-methylthiazol-5-yl)phenyl)ethyl)carbamoyl)pyrrolidin-1-yl)-3,3-dimethyl-1-oxobutan-2-yl)bicyclo[1.1.1]pentane-1,3-dicarboxamide], for which the Dmax at IRAK4 [1] (setting [3]) is 117%. Besides, the DC50 at IRAK4 [1] (Table 5, multiple runs) stood at 42.2 nM. In addition, the half-inhibitory concentration (IC50) at IRAK4 [2] (Table 5, multiple runs) worked out at 2.4 nM.

Consider `CNc1cc(-c2ccc3cc(C#N)cnn23)ncc1-c1nnc(N2CCC(NC(=O)C3CCN(c4cccc5c4C(=O)N(C4CCC(=O)NC4=O)C5=O)CC3)CC2)s1` (stereo not shown) [Example 90, N-(1-(5-(6-(3-cyanopyrrolo[1,2-b]pyridazin-7-yl)-4-(methylamino)pyridin-3-yl)-1,3,4-thiadiazol-2-yl)piperidin-4-yl)-1-(2-(2,6-dioxopiperidin-3-yl)-1,3-dioxoisoindolin-4-yl)piperidine-4-carboxamide], for which the DC50 on IRAK4 [1] (Table 5, multiple runs) was greater than 9980 nM. Further, the IC50 on IRAK4 [2] (Table 5, multiple runs) was found to be 0.8 nM.

In the case of `CNc1cc(-c2ccc3cc(C#N)cnn23)ncc1-c1nnc([C@H]2CC[C@@H](NC(=O)CCCCCCCNc3ccc4c(c3)C(=O)N(C3CCC(=O)NC3=O)C4=O)CC2)s1` (stereo partly shown) [Example 112, N-((1s,4s)-4-(5-(6-(3-cyanopyrrolo[1,2-b]pyridazin-7-yl)-4-(methylamino)pyridin-3-yl)-1,3,4-thiadiazol-2-yl)cyclohexyl)-8-((2-(2,6-dioxopiperidin-3-yl)-1,3-dioxoisoindolin-5-yl)amino)octanamide], the Dmax on IRAK4 [1] (setting [3]) came to 57%. For the same compound, the DC50 at IRAK4 [1] (Table 5, multiple runs) was found to be 171 nM. In addition, on IRAK4 [2] (Table 5, multiple runs), the IC50 turned out to be 10.2 nM.

As for `CNc1cc(-c2ccc3cc(C#N)cnn23)ncc1-c1nnc([C@H]2CC[C@H](NC(=O)C[C@H](NC(=O)[C@@H]3C[C@@H](O)CN3C(=O)[C@@H](NC(=O)C3(F)CC3)C(C)(C)C)c3ccc(-c4scnc4C)cc3)CC2)s1` [Example 118, (2S,4R)—N—((S)-3-(((1r,4S)-4-(5-(6-(3-cyanopyrrolo[1,2-b]pyridazin-7-yl)-4-(methylamino)pyridin-3-yl)-1,3,4-thiadiazol-2-yl)cyclohexyl)amino)-1-(4-(4-methylthiazol-5-yl)phenyl)-3-oxopropyl)-1-((S)-2-(1-fluorocyclopropane-1-carboxamido)-3,3-dimethylbutanoyl)-4-hydroxypyrrolidine-2-carboxamide], the Dmax on IRAK4 [1] (setting [3]) turned out to be 118%. Moreover, the DC50 at IRAK4 [1] (Table 5, multiple runs) was 35.2 nM. For the same compound, the IC50 on IRAK4 [2] (Table 5, multiple runs) came to 1.4 nM.
